Experimental findings from patent US20230233567A1, “BELVARAFENIB FOR USE IN CANCER TREATMENT” (Hanmi Pharm. Co., Ltd., priority 2020, published 2023) are described below.

One may read the GI50 as the concentration giving 50% growth inhibition. The term IC50 denotes the midpoint of a concentration-inhibition curve.

Data set [1] relates to locally advanced and/or metastatic solid tumors carrying mutations in the BRAF, KRAS, and/or NRAS genes. Nature of the data set: Phase I dose-escalation tumor response (RECIST v1.1). Format: in vivo, human. On the set-up: key: “PR” refers to partial response; “SD” refers to stable disease; “PD” refers to progressive disease. The protocol: (§1) Phase I dose-escalation (NCT02405065) and dose-expansion studies (NCT02405065) were conducted in patients with locally advanced and/or metastatic solid tumors carrying mutations in the BRAF, KRAS, and/or NRAS genes.
(§2) Eligible patients had measurable or evaluable disease per the Response Evaluation Criteria in Solid Tumors version 1.1 (RECIST v1.1). See Eisenhauer E A, Therasse P, Bogaerts J, et al., “New response evaluation criteria in solid tumours: revised RECIST guideline (version 1.1)”, Eur J Cancer 45:228-47, 2009. All patients had progressed on one or more prior lines of therapy or had no available standard therapy at the time of study entry. Additional eligibility criteria included Eastern Cooperative Oncology Group (ECOG) performance status ≤2 and life expectancy ≥12 weeks. Patients with cardiovascular abnormalities as mean QTcF>440 msec were excluded from the dose-expansion phase.
(§3) Tumor response assessments were performed radiographically by the investigator using RECIST version 1.1 at baseline, and at the end of every two treatment cycles until discontinuation. Safety evaluation (Safety Set) included all patients who received one or more doses of belvarafenib and efficacy evaluation (Full Analysis Set) included subjects who received at least one dose of belvarafenib and had at least one post-dose tumor response assessment.

The subject of another data set is LS174T (KRAS^G12D). Nature of the data set: In vitro cell growth inhibition, CRC. Conditions: Homo sapiens. Format: cell-based.
For another data set, the system named is SNU790 (BRAF^V600E). Briefly: In vitro cell growth inhibition, thyroid cancer. Format: cell-based. The note with it: SNU7890, BRAF^V600E.
For data set [2], the system named is HT-29 CRC cell line harboring BRAF^V600E mutation. Briefly: In vivo antitumor activity, HT-29 xenograft. More on the design: species or system mice. The protocol: In vivo antitumor activity of belvarafenib was investigated in an experiment in a mice model xenografted with a HT-29 CRC cell line harboring BRAF^V600E mutation. Five animals per group were treated with vehicle (control) and belvarafenib at a dose of 30 mg/kg once daily via oral gavage up to day 21.

For a further data set, the system named is Colo-205 (BRAF^V600E). Nature of the data set: In vitro cell growth inhibition, CRC. The note with it: Homo sapiens. Format: cell-based.
Another data set concerns CAL-62 (KRAS^G12R). Nature of the data set: In vitro cell growth inhibition, thyroid cancer. Format: cell-based. The note with it: Homo sapiens.
In data set [3] the test system is locally advanced and/or metastatic solid tumors carrying mutations in the BRAF, KRAS, and/or NRAS genes. Briefly: Phase I dose-escalation tumor response (RECIST v1.1). Format: in vivo, human. On the set-up: key: “uPR” refers to unfolded protein response; “cPR” refers to confirmed partial response. Conditions: BRAF^V600E, NRAS^Q61L melanoma, prior Vemurafenib. The protocol:
as §1, §2, §3

The subject of data set [4] is MEK and ERK phosphorylation in HCT116 (KRAS^G13D) cells. Briefly: Inhibition of MEK and ERK phosphorylation, KRAS mutant. Format: cell-based. The note with it: Homo sapiens, HCT-116, CRC HCT116, KRAS G13D, 2 hr treatment.

Structures are written as SMILES. “And” between values parts separate entries of the source, which are not always exact repeats. Equal entries are not always repeated. Where two headings read alike, the source gives them in different places.

On to `Cc1ccc2c(Nc3cccc(Cl)c3F)nccc2c1NC(=O)c1csc2c(N)ncnc12` [Belvarafenib], for which the “Belvarafenib BOR” value in data set [1] (NRAS G12C melanoma, prior Nivolumab) was “SD”; in data set [1] (NRAS G12D melanoma, prior Ipilimumab), “PR”; in data set [1] (NRAS Q61K melanoma, prior Nivolumab), “PR”; in data set [1] (NRAS Q61R melanoma, prior Ipilimumab), “PR”; in data set [1] (NRAS Q61R melanoma, prior Pembrolizumab), “PD”; in data set [3], “uPR”. Also, the 50% growth inhibitory concentration (GI50) with LS174T (KRAS^G12D) was determined as 258 nM; in the data set with SNU790 (BRAF^V600E), 27 nM; in the data set with Colo-205 (BRAF^V600E), 118 nM; in the data set with CAL-62 (KRAS^G12R), 479 nM. Besides, in data set [2] (30 mg/kg), the “Day for maximum inhibition” value was 22 and 21. For the same compound, the Maximum weight loss in data set [2] (30 mg/kg) is 2.4%. The Maximum inhibition rate in data set [2] (30 mg/kg once daily oral, 21 days) was 59.8%. In addition, the half-inhibitory concentration (IC50) in data set [4] (read-out: IC50 pERK) is 253 nM; in data set [4] (read-out: IC50 pMEK), 2700 nM.
